Laboratory results taken from paper PMC3914206.

Key:
[1] = target: T1, panel of 442 kinases (Homo sapiens, UniProt Q9NWZ3); format: binding; settings: Compound Concentration 10 µM
T1 construct: purchased KINOMEscan
T1 sequence (Q9NWZ3 1-460): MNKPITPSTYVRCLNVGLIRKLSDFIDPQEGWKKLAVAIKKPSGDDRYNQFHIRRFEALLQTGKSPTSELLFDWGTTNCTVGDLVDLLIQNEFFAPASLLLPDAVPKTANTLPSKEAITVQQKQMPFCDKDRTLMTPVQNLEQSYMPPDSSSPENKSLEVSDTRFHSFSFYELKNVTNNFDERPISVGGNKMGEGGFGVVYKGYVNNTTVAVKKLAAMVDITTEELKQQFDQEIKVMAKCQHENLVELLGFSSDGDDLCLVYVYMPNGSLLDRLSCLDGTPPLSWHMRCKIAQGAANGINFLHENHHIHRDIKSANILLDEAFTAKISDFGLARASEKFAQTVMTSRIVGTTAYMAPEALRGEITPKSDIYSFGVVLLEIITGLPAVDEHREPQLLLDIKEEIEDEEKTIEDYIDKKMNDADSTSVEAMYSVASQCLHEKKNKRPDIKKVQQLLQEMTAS
From the text: (§1) We assessed the selectivity of members of this scaffold using the KINOMEscan methodology across a near comprehensive panel of 442 kinases [[18,27]].

[2] = target: T2, panel of 442 kinases (Homo sapiens, UniProt Q9Y6R4); format: binding; settings: Compound Concentration 10 µM
T2 construct: purchased KINOMEscan
T2 sequence (Q9Y6R4 whole entry): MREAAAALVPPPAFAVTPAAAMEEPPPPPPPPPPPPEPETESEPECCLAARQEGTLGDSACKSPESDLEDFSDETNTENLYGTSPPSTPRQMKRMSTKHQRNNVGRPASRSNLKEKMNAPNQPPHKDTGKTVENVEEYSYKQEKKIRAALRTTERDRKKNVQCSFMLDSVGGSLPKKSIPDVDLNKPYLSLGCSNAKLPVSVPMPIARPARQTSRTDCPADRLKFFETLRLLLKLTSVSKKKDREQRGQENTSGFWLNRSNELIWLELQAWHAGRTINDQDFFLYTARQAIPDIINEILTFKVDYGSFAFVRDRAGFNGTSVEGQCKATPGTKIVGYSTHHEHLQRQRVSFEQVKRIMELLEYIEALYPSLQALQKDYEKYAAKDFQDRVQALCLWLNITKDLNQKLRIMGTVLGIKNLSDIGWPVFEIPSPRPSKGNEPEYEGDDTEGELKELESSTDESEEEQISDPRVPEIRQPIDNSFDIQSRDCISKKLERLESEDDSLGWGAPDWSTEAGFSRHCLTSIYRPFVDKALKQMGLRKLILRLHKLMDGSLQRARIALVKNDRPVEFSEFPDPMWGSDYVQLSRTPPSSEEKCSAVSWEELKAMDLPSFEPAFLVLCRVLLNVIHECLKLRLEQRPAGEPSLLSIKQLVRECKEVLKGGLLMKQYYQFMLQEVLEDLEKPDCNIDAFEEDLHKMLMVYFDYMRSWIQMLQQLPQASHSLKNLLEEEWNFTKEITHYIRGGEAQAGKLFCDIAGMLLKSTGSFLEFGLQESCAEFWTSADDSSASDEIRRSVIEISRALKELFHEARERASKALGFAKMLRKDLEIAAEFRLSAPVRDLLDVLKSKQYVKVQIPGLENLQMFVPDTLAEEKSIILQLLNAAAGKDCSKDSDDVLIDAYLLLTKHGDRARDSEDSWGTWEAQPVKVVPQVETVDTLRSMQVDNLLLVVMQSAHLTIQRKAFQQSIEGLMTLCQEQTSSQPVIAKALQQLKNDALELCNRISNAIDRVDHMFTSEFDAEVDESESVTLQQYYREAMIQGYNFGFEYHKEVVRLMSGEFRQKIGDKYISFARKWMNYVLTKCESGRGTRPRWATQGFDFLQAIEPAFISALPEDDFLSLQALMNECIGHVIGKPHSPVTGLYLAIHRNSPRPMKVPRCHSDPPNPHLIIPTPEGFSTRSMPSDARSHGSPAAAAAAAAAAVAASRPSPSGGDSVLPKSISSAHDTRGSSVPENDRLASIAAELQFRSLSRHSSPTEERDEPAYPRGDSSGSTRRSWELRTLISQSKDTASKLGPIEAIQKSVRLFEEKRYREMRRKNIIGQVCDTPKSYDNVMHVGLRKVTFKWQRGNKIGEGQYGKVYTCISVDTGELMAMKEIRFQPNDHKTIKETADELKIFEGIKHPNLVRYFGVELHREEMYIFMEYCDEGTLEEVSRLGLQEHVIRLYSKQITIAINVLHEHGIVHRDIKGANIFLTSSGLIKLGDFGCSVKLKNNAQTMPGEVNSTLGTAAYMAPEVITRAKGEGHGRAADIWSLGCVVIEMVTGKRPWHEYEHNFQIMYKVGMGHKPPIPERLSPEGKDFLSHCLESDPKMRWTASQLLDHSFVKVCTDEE
From the text: as §1

With COc1cc(C(=O)N2CCC(N3CCN(C)CC3)CC2)ccc1Nc1ncc2c(n1)N(C)c1ccccc1C(=O)N2C [15 (LRRK2-IN-1)] as the molecule, how does the “KINOMEscan: IRAK4” value [1] read?
The value was 83.

And the “KINOMEscan: MAP3K4” value [2]?
The value was 100.

What does the source list for CCOc1cc(C(=O)N2CCC(N3CCN(C)CC3)CC2)ccc1Nc1ncc2c(n1)N(C1CCCC1)c1ccccc1C(=O)N2C [Compound 26]?
KINOMEscan: IRAK4 [1]: 100; KINOMEscan: MAP3K4 [2]: 100

What does the source list for COc1cc(C(=O)N2CCC(N3CCN(C)CC3)CC2)ccc1Nc1ncc2c(n1)N(C1CCCC1)c1ccccc1C(=O)N2C [Compound 25, 11-cyclopentyl-2-((2-methoxy-4-(4-(4-methylpiperazin-1-yl)piperidine-1-carbonyl)phenyl)amino)-5-methyl-5H-benzo[e]pyrimido[5,4-b][1,4]diazepin-6(11H)-one]?
KINOMEscan: IRAK4 [1]: 100; KINOMEscan: MAP3K4 [2]: 100
